Experiment [1] has as its system HIV-1 mediated cell-cell fusion (R8 virus). The note with it: for EC50 / IC50: mediated cell-cell fusion (R8 virus).
Experiment [2] has as its system M-tropic (BAL) HIV-1. To be noted: for IC50: M-tropic (BAL).
For experiment [3], the system named is R9 HIV-1 virus. Type of experiment: cell-based.
For experiment [4], the system named is HIV-1. The experiment is classed as cell-based.
Experiment [5] deals with T-tropic (R8) HIV-1. The note with it: for IC50: T-tropic (R8).
The target of experiment [6] is gp41 of M-tropic HIV-1 BAL virus (HIV-1 (BAL)). The experiment in a line: cell-based or functional assay.
The target of experiment [7] is gp41 of T20-resistant HIV-1 virus (HIV-1 (T20-resistant virus)). The experiment in a line: cell-based or functional assay.
Experiment [8] concerns the target gp41 of HIV-1 NL4-3 (HIV-1 (NL4-3)). Kind of experiment: cell-based or functional assay.
Experiment [9] has as its target gp41 of T-tropic HIV-1 R8 virus (HIV-1 (R8)). The experiment in a line: cell-based or functional assay.
In experiment [10] the test system is NL4-3 (MT-4).
In experiment [11] the test system is HIV. To be noted: human, in vivo; cited from earlier work.
The subject of experiment [12] is T-20 Resistant Virus.

Values joined by “and” are separate entries in the source; they are usually repeats but may differ in a detail not shown here. Equal entries are not always repeated. Where two headings read alike, the source gives them in different places.

As to `CC[C@H](C)[C@H](NC(=O)[C@H](CC(C)C)NC(=O)[C@H](CO)NC(=O)[C@H](Cc1c[nH]cn1)NC(=O)[C@@H](NC(=O)[C@H](CC(C)C)NC(=O)[C@H](CO)NC(=O)[C@@H](NC(=O)[C@H](Cc1ccc(O)cc1)NC(=O)[C@@H]1CSC(C(=O)NCCCC[C@H](NC(=O)CCNC(=O)C2N[C@H](C(=O)N[C@@H](Cc3ccc(O)cc3)C(=O)N[C@H](C(=O)N[C@@H](CO)C(=O)N[C@@H](CC(C)C)C(=O)N[C@H](C(=O)N[C@@H](Cc3c[nH]cn3)C(=O)N[C@@H](CO)C(=O)N[C@@H](CC(C)C)C(=O)N[C@H](C(=O)N[C@@H](CCC(=O)O)C(=O)N[C@@H](CCC(=O)O)C(=O)N[C@@H](CO)C(=O)N[C@@H](CCC(N)=O)C(=O)N[C@@H](CC(N)=O)C(=O)N[C@@H](CCC(N)=O)C(=O)N[C@@H](CCC(N)=O)C(=O)N[C@@H](CCC(=O)O)C(=O)N[C@@H](CCCCN)C(=O)N[C@@H](CC(N)=O)C(=O)N[C@@H](CCC(=O)O)C(=O)N[C@@H](CCC(N)=O)C(=O)N[C@@H](CCC(=O)O)C(=O)N[C@@H](CC(C)C)C(=O)N[C@@H](CC(C)C)C(=O)N[C@@H](CCC(=O)O)C(=O)N[C@@H](CC(C)C)C(=O)N[C@@H](CC(=O)O)C(=O)N[C@@H](CCCCN)C(=O)N[C@@H](Cc3c[nH]c4ccccc34)C(=O)N[C@@H](C)C(=O)N[C@@H](CO)C(=O)N[C@@H](CC(C)C)C(=O)N[C@@H](Cc3c[nH]c4ccccc34)C(=O)N[C@@H](CC(N)=O)C(=O)N[C@@H](Cc3c[nH]c4ccccc34)C(=O)N[C@@H](Cc3ccccc3)C(=O)O)[C@@H](C)CC)[C@@H](C)CC)[C@@H](C)O)CS2)C(=O)N[C@@H](CO)C(=O)N[C@@H](CO)C(=O)N[C@@H](C)C(N)=O)N1)[C@@H](C)O)[C@@H](C)CC)C(=O)N[C@@H](CCC(=O)O)C(=O)N[C@@H](CCC(=O)O)C(=O)N[C@@H](CO)C(=O)N[C@@H](CCC(N)=O)C(=O)N[C@@H](CC(N)=O)C(=O)N[C@@H](CCC(N)=O)C(=O)N[C@@H](CCC(N)=O)C(=O)N[C@@H](CCC(=O)O)C(=O)N[C@@H](CCCCN)C(=O)N[C@@H](CC(N)=O)C(=O)N[C@@H](CCC(=O)O)C(=O)N[C@@H](CCC(N)=O)C(=O)N[C@@H](CCC(=O)O)C(=O)N[C@@H](CC(C)C)C(=O)N[C@@H](CC(C)C)C(=O)N[C@@H](CCC(=O)O)C(=O)N[C@@H](CC(C)C)C(=O)N[C@@H](CC(=O)O)C(=O)N[C@@H](CCCCN)C(=O)N[C@@H](Cc1c[nH]c2ccccc12)C(=O)N[C@@H](C)C(=O)N[C@@H](CO)C(=O)N[C@@H](CC(C)C)C(=O)N[C@@H](Cc1c[nH]c2ccccc12)C(=O)N[C@@H](CC(N)=O)C(=O)N[C@@H](Cc1c[nH]c2ccccc12)C(=O)N[C@@H](Cc1ccccc1)C(=O)O` (stereo partly drawn) [Compound 2α-DP178], in experiment [1], the “fold increase over monomer, cell-cell fusion” value is 122 fold; the concentration for a half-maximal effect (EC50) amounted to 0.18 nM; the half-maximal inhibitory concentration (IC50) worked out at 0.18 nM. Also, in experiment [2], the “fold increase of potency over monomer, BAL virus” value is 14 fold and the midpoint of inhibition, the IC50, lay at 0.28 nM. Further, the “percentage of inhibition of cell infection” value in experiment [3] (0.01 µM) is ~100%. For the same compound, the “Neutralization (%)” value in experiment [4] was <5% and 6%. Moreover, in [5], the “fold increase of potency over monomer, R8 virus” value is given as 182 fold and the half-inhibitory concentration (IC50) was found to be 0.42 nM.
As to “DP178 (from UniProt P04578 638-673) (peptide)”, the IC50, single-cycle MAGI infectivity, BAL virus in experiment [6] worked out at 3.9 nM. The compound also displayed an IC50, single-cycle MAGI infection of P4R5 cells, T-20 Resistant Virus in experiment [7] of 32.3 nM. In experiment [8], this compound yielded an IC50, single-cycle MAGI infection of P4R5 cells, NL4-3 (MT-4) of 4.31 nM. Further, in experiment [9], the IC50, HIV-1 mediated cell-cell fusion (syncytium formation), R8 virus is 22.1 nM and the IC50, single-cycle MAGI infectivity, R8 virus was determined as 76.4 nM.
enfuvirtide displayed an EC50 in experiment [1] of 22.1 nM. Besides, the IC50 amounted to 22.1 nM in experiment [1]; 4.31 nM in experiment [10]; 3.9 nM in experiment [2]; 76.4 nM in experiment [5]; 32.3 nM in experiment [12]. Also, the “percentage of inhibition of cell infection” value in experiment [3] (0.5 µM) is ~100%. For the same compound, in experiment [11], the “reduction of plasma HIV RNA levels” value is ≤ 2 logs. In [12], the Ratio turned out to be 7.50.

Values taken from patent publication US20050113292A1 (priority 2003, published 2005).
